Experimental data reported in patent publication US5686109A, “Antipyretic analgesic composition” (priority 1993, dated 1997).

Tested on: SD strain rats (pain threshold of right hind leg)
Test: Pain Removing Effect (Randall-Selitto method, heat edema)
Type: in vivo, rat
Conditions: 2 h after administration, mean ± standard error, n=10 rats
Procedure: Test substances and doses:
IPA and IBP were respectively suspended in a 0.5% aqueous solution of methylcellulose (MC) to a concentration of 8 mg/ml. The test suspensions for groups 2 and 3 were prepared by mixing the IPA suspension and IBP suspension together in a proportion of 3:1 (group 2) or 1:3 (group 3). The doses used are shown below. Each suspension was orally administered at a volumetric dose of 5 ml/kg.
Group 1: IPA 40 mg/kg+IBP 0 mg/kg
Group 2: IPA 30 mg/kg+IBP 10 mg/kg
Group 3: IPA 10 mg/kg+IBP 30 mg/kg
Group 4: IPA 0 mg/kg +IBP 40 mg/kg
Six-week-old male SD strain rats (Nippon SLC) fasted 24 hours before experiment were used in groups of 10. They were grouped such that the four groups were uniform in mean body weight.
First, the pain threshold value before thermal stimulation was measured (0 hour value). Then, heat edema was caused on the right hind leg of the rat by immersing said leg in hot water (54° C.) just to the fibular ankle (boundary showing sudden change in hair density) for 12 seconds. Two hours later, the pain threshold of the right hind leg was measured (2 hours value), immediately followed by test substance administration. After the lapse of two further hours, the pain threshold of the right hind leg was measured (4 hours value).
The percent pain removal was calculated by the following formula: [formula]

SMILES | Pain removal (%) (IPA 0 mg/kg + IBP 40 mg/kg PO) | Pain removal (%) (IPA 40 mg/kg PO + IBP 0 mg/kg)
CC(C)Cc1ccc(C(C)C(=O)O)cc1 (centres unmarked) [IBP, 2-(4-isobutylphenyl)propionic acid] | 32.3 ± 7.5% | –
Cc1c(C(C)C)c(=O)n(-c2ccccc2)n1C [IPA, 4-isopropyl-2,3-dimethyl-1-phenyl-3-pyrazolin-5-one] | – | 25.8 ± 15.9%
